Test results from US20220098191A1 (priority 2019, published 2022).
Where “and” joins values, the source holds several entries; their conditions need not be identical. Equal entries are not always repeated.

Test: Hydrophobicity investigation of free payloads by UPLC (hydrophobicity model)
Type: physicochemical
Conditions: for Retention Time (min) seco form / Retention Time (min) spiro form: single runs 1-3 (triplicate), 0.1% TFA water/acetonitrile gradient; for Retention Time (min) seco form, Average: Average of runs, D only in seco form, the others observable as single species
Description: Both mobile phases were filtered through 0.22 μm filters and degassed by sonication under argon. Caffeine (Merck, UPLC grade) was employed a standard. Blank solvent samples (i.e., DMSO) were used during sample runs to confirm lack of carryover between injections and to monitor column performance.
UPLC-MS analysis was performed on a Waters Acquity H-Class Ultra-Performance Liquid Chromatography (UPLC) System equipped with an Acquity UPLC BEH, […] 50×2.10 mm (Waters, UK) column and a photodiode array detector […], using Waters MassLynx software. The gradient system used for LC analysis consisted of 0.1% trifluoroacetic acid (TFA) in water as Solvent A, and 0.1% trifluoroacetic acid (TFA) in acetonitrile as Solvent B. TFA was purchased from Merck (UK), and diluted to the required concentration with UPLC grade water and acetonitrile for Solvent A and Solvent B, respectively. TFA was added to ensure acidic conditions throughout the analysis. A flow rate of 0.4 mL/min was used, and the detection wavelength was 254 nm. Mass spectrometry data were collected using a Waters SQ Detector 2 coupled to a Waters Acquity H Class UPLC and a Photo Diode Array Detector (ACQ-PDA). The Waters SQ Detector 2 parameters were set to: Capillary (kV), 3.00; Cone (V), 30; De-solvation Temperature (° C.), 600; Cone flow rate (L/h), 50; De-solvation flow rate (L/h), 600.
Gradient method used: from 95% A/5% B to 20% B over 5 min. Then from 20% B to 60% B over 35 min, followed by from 60% B to 85% B over 10 min. It was further changed from 85% B to 90% B over 5 min and kept for a further 5 min. Finally, from 90% B to 95% B over 2.5 min, and then to 20% B over 2.5 min. 10 μL was split via a zero-dead volume T-piece which passed into the mass spectrometer.
Compounds were provided in powder form and were dissolved in DMSO to achieve 5 mM stock solution. This solution was then diluted to 500 μM with 50% acetonitrile/50% water.
A number of commercially available ADC payloads and internal reference compounds were also incorporated into the analysis, and their structures are presented in Table 3.

Row | Structure (SMILES) | Retention Time (min) seco form | Retention Time (min) spiro form | Retention Time (min) seco form, Average | enhanced hydrophilicity (retention time) compared to the unsubstituted compound (B) (carbamate pro-drug D versus B)
1 | COc1cc2c(cc1OCCCCCC(=O)N1C[C@@H](CCl)c3c1cc(O)c1ccccc31)N=C[C@@H]1CCCCN1C2=O [A, reference compound] | 22.55 min and 22.56 min | 14.85 min and 14.83 min and 14.84 min | – | –
2 | COc1cc2c(cc1OCc1cccc(CC(=O)N3C[C@@H](CCl)c4c3cc(O)c3ccccc43)c1)N=C[C@@H]1CCCCN1C2=O [B, reference compound] | 23.64 min and 23.65 min | 16.10 min and 16.12 min and 16.09 min | – | –
3 | COc1cc2c(cc1OCCCCCC(=O)N1C[C@@H](CCl)c3c1cc(O)c1ccccc31)N=C[C@@H]1CCCN1C2=O [C, reference compound] | 20.16 min and 20.15 min | 12.49 min and 12.48 min and 12.45 min | – | –
4 | COc1cc2c(cc1OCc1cccc(CC(=O)N3C[C@@H](CCl)c4c3cc(OC(=O)N3CCN(C)CC3)c3ccccc43)c1)N=C[C@@H]1CCCCN1C2=O [D, reference compound] | – | – | 17.03 min | approximately 10 mins
5 | COc1cc2c(cc1OCc1cc(N)cc(COc3cc4c(cc3OC)C(=O)N3c5ccccc5C[C@H]3CN4)c1)N=C[C@@H]1Cc3ccccc3N1C2=O [DGN549, reference compound] | – | – | 16.60 min | –
6 | COc1cc2cc(c1Cl)N(C)C(=O)C[C@](C)(OC(=O)[C@@H](C)N(C)C(=O)CCSC)[C@]1(C)O[C@H]1[C@H](C)[C@@H]1C[C@@](O)(NC(=O)O1)[C@H](OC)/C=C/C=C(\C)C2 [DM1, reference compound] | – | – | 21.24 min | –
7 | CC[C@H](C)C[C@H](OC)[C@@H](C(=O)N1CCC[C@H]1[C@@H](CC(=O)N[C@H](C)[C@@H](O)c1ccccc1)OC)N(C)C(=O)[C@@H](NC(=O)[C@@H](NC)C(C)C)C(C)C [MMAE, reference compound] | – | – | 12.04 min | –
8 | COc1cc2c(cc1OCCCCCOc1cc3c(cc1OC)C(=O)N1C=C(C)C[C@H]1C=N3)C=C[C@@H]1CC(C)=CN1C2=O [SG3199, reference compound] | – | – | 12.02 min | –
9 | COc1ccc(C2=CN3C(=O)c4cc(OC)c(OCCCOc5cc6c(cc5OC)C(=O)N5C=C(c7ccc(N)cc7)C[C@H]5C=N6)cc4N=C[C@@H]3C2)cc1 [SGD1882, reference compound] | – | – | 12.55 min | –
10 | CCc1c2c(nc3ccc(O)cc13)-c1cc3c(c(=O)n1C2)COC(=O)[C@]3(O)CC [SN38, reference compound] | – | – | 7.13 min | –
